According to paper PMC3252375 (PLoS Pathogens, 2012):
Like-named read-outs stand apart in the source and are kept apart here.

Experiments:
[1] = tested on: LncP (Legionella nucleotide carrier Protein)
[2] = tested on: LncP (Legionella nucleotide carrier Protein); format: biochemical, Legionella pneumophila

Compound	Km [1]	Km [2]
Nc1ncnc2c1ncn2[C@@H]1O[C@H](COP(=O)(O)OP(=O)(O)OP(=O)(O)O)[C@@H](O)[C@H]1O [ATP]	190 ± 37 µM	–
Nc1nc2c(ncn2[C@@H]2O[C@H](COP(=O)(O)OP(=O)(O)OP(=O)(O)O)[C@@H](O)[C@H]2O)c(=O)[nH]1 [GTP]	–	183 ± 32 µM
